Source: ChEMBL document CHEMBL2086228, “Radiosynthesis and in vivo tumor uptake of 2-deoxy-2-[(18)F]fluoro-myo-inositol” (Bioorg Med Chem Lett, 2012)

How the values were obtained:
[1] = system: Nucleic Acid; assay: Ratio of drug level in liver to blood in athymic nude BALB/c mouse xenografted with human MDA-MB-231 cells at 3 to 3.7 MBq, iv after 60 mins by gamma counting; format: ADME, organism-based; conditions: other tissue, 1 h
[2] = system: Heart; assay: Drug uptake in heart of athymic nude BALB/c mouse xenografted with human MDA-MB-231 cells at 3 to 3.7 MBq, iv at 30 to 60 mins by PET scanning analysis; format: ADME, organism-based; conditions: in vivo
[3] = Drug uptake in tumor of human MDA-MB-231 cells xenografted athymic nude BALB/c mouse at 3 to 3.7 MBq, iv up to 10 mins by PET scanning analysis; format: ADME, organism-based, Neoplasm; conditions: in vivo
[4] = Drug uptake in tumor of human MDA-MB-231 cells xenografted athymic nude BALB/c mouse at 3 to 3.7 MBq, iv up to 60 mins by PET scanning analysis; format: ADME, organism-based, Neoplasm; conditions: in vivo, 1 h
[5] = system: Kidney; assay: Drug uptake in kidney of athymic nude BALB/c mouse xenografted with human MDA-MB-231 cells at 3 to 3.7 MBq, iv up to 60 mins by PET scanning analysis; format: ADME, organism-based; conditions: in vivo, 1 h
[6] = system: Urinary bladder; assay: Drug uptake in bladder of athymic nude BALB/c mouse xenografted with human MDA-MB-231 cells at 3 to 3.7 MBq, iv at 30 to 60 mins by PET scanning analysis; format: ADME, organism-based; conditions: in vivo

Row | Ratio [1] | Drug uptake [2] | Drug uptake [3] | Drug uptake [4] | Drug uptake [5] | Drug uptake [6] | Compound
1 | 1.7 | Active | Active | Active | Active | Active | O[C@@H]1[C@@H](O)[C@H](O)[C@H]([18F])[C@H](O)[C@H]1O
2 | 1.5 |  | Active | Active |  |  | O[C@@H]1[C@@H](O)[C@H](O)[C@@H]([18F])[C@H](O)[C@H]1O
